Assay results reported in patent US11026427B2, “Microbiocidal oxadiazole derivatives” (SYNGENTA PARTICIPATIONS AG, priority 2016, dated 2021).

Key:
[1] = tested on: Puccinia recondita f. Sp. tritici; test: Puccinia recondita f. sp. tritici / wheat / leaf disc preventative (brown rust); type: in vivo; conditions: foliar, 200 ppm in the applied formulation, compared to untreated control, read-out: disease control
Procedure, shortened: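 Single evaluation 7–9 d after spraying: % disease control compared with untreated leaf segments. Protocol: cv. Kanzler segments, preventative spray at 200 ppm, spore inoculation at day 1, 19° C., 75% rh, 12 h light/12 h dark.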

[2] = tested on: Phakopsora pachyrhizi; test: Phakopsora pachyrhizi / soybean / leaf disc preventative (Asian soybean rust); type: in vivo; conditions: foliar, 200 ppm in the applied formulation, compared to untreated control, read-out: disease control
Procedure, shortened: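 Read-out is percent disease control relative to untreated check discs, assessed once untreated discs show adequate disease, 12 to 14 days after application. Compounds, tested at 200 ppm in the applied formulation, are sprayed onto soybean leaf discs one day before inoculation with a spore suspension.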

[3] = tested on: Uromyces viciae-fabae; test: Uromyces viciae-fabae / field bean / leaf disc preventative (faba-bean rust); type: in vivo; conditions: foliar, 288 h, 100 ppm in the applied formulation, compared to untreated control, read-out: disease control
Protocol: Leaf disks or leaf segments of various plant species are cut from plants grown in a greenhouse. The cut leaf disks or segments are placed in multiwell plates (24-well format) onto water agar. The leaf disks are sprayed with a test solution before (preventative) or after (curative) inoculation. Compounds to be tested are prepared as DMSO solutions (max. 10 mg/ml) which are diluted to the appropriate concentration with 0.025% Tween20 just before spraying. The inoculated leaf disks or segments are incubated under defined conditions (temperature, relative humidity, light, etc.) according to the respective test system. A single evaluation of disease level is carried out 3 to 14 days after inoculation, depending on the pathosystem. Percent disease control relative to the untreated check leaf disks or segments is then calculated.
Field bean leaf discs are placed on water agar in multiwell plates (96-well format) and 10 μl of the formulated test compound diluted in acetone and a spreader pipetted onto the leaf disc. Two hours after application leaf discs are inoculated by spraying a spore suspension on the lower leaf surface. The leaf discs are incubated in a climate cabinet at 22° C. with 18 hour day and 70% relative humidity. The activity of a compound is assessed as percent disease control compared to untreated when an appropriate level of disease damage appears in untreated check leaf disks (12 days after application).
The following compounds at 100 ppm in the applied formulation give at least 80% disease control in this test when compared to untreated control leaf discs under the same conditions, which show extensive disease development.

[4] = tested on: Glomerella lacenarium (Colletotrichum lacenarium); test: Glomerella lacenarium (Colletotrichum lacenarium) liquid culture / cucumber / preventative (anthracnose); type: cell-based; conditions: 20 ppm in the applied formulation, growth inhibition measured photometrically, compared to untreated control, read-out: disease control
Procedure, shortened: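 Conidia from cryogenic storage were mixed into potato dextrose broth and added to DMSO solutions of test compound in microtiter plates. Plates were incubated at 24° C. and growth inhibition read photometrically 3 to 4 days after application, as percent antifungal activity versus untreated check.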

[5] = tested on: Puccinia recondita f. Sp. tritici; test: Puccinia recondita f. sp. tritici / wheat / leaf disc curative (brown rust); type: in vivo; conditions: foliar, 200 ppm in the applied formulation, compared to untreated control, read-out: disease control
Procedure, shortened: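 Wheat cv. Kanzler leaf segments on agar were inoculated with fungal spore suspension, held dark at 19° C and 75% RH, then sprayed 1 day later with formulated compound diluted in water. Incubation continued at 19° C, 75% RH, 12 h light/12 h dark; percent disease control versus untreated was scored 6 to 8 days after application.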

melting point | Structure (SMILES) | pest or weed control at 200 ppm [1] | pest or weed control at 200 ppm [2] | pest or weed control at 100 ppm [3] | inhibition of growth at 20 ppm [4] | pest or weed control at 200 ppm [5]
63 to 69 °C | OC(c1ccccc1)c1ccc(-c2noc(C(F)(F)F)n2)cc1 (centres unmarked) [Compound 2.2, phenyl-[4-[5-(trifluoromethyl)-1,2,4-oxadiazol-3-yl]phenyl]methanol] | ≥ 80% | ≥ 80% | ≥ 80% | ≥ 80% | 
93 to 96 °C | CC#CC(O)c1ccc(-c2noc(C(F)(F)F)n2)cc1 (centres unmarked) [Compound 2.6, 1-[4-[5-(trifluoromethyl)-1,2,4-oxadiazol-3-yl]phenyl]but-2-yn-1-ol] | ≥ 80% | ≥ 80% | ≥ 80% | ≥ 80% | ≥ 80%
